Results as given in patent publication US12180185B2, “Compound as protein kinase inhibitor, and pharmaceutical composition comprising thereof” (HK INNO.N Corporation, priority 2018, dated 2024).

Molecular target: JAK1 (Homo sapiens (Human), UniProt P23458)
Assay: Analysis of JAK1 activity inhibitory capacity (ADP-Glo Kinase assay)
Format: biochemical
Settings: JAK1 enzyme, ATP 250 uM, IRS-1tide substrate, 30° C. 40 minutes, luminescence
Description: Experimental Example 1: Analysis of JAK1 activity inhibitory capacity (ADP-Glo™ Kinase assay)
An inhibitory effect of the inventive compound on JAK was identified as follows.
A control material and a test material were prepared through dilution at each concentration by using DMSO. At the same time, ATP (250 uM) and JAK's substrate (JAK1, IRS-1tide 40 ng/mL) were prepared through dilution in kinase buffer (40 mM Tris-HCl pH 7.5, 20 mM MgCl2, 0.5 mg/mL BSA, 50 uM DTT).
A test drug for each concentration, the substrate, the ATP and JAK enzymes were mixed in an eppendorf tube, and then subjected to reaction in an incubator at 30° C. for 40 minutes.
ADP-Glo ? reagent included in ADP-Glo™ Kinase Enzyme System (Promega, USA, V9571) was added to each eppendorf tube, and then subjected to reaction in the incubator at 30° C. for 40 minutes.
A kinase detection reagent included in the ADP-Glo™ Kinase Enzyme System was inserted into the eppendorf tube, after which luminescence was measured by using Wallac Victor 2TM with an integration time set to 1 second, such that an inhibitory capacity of the test material on JAKs phosphorylation was analyzed. A concentration of the compound, at which JAK enzyme activity inhibition occurs 50% compared to the control group, was determined as IC50 (nM) of an inhibitor.

Sequence of JAK1 (P23458 whole entry): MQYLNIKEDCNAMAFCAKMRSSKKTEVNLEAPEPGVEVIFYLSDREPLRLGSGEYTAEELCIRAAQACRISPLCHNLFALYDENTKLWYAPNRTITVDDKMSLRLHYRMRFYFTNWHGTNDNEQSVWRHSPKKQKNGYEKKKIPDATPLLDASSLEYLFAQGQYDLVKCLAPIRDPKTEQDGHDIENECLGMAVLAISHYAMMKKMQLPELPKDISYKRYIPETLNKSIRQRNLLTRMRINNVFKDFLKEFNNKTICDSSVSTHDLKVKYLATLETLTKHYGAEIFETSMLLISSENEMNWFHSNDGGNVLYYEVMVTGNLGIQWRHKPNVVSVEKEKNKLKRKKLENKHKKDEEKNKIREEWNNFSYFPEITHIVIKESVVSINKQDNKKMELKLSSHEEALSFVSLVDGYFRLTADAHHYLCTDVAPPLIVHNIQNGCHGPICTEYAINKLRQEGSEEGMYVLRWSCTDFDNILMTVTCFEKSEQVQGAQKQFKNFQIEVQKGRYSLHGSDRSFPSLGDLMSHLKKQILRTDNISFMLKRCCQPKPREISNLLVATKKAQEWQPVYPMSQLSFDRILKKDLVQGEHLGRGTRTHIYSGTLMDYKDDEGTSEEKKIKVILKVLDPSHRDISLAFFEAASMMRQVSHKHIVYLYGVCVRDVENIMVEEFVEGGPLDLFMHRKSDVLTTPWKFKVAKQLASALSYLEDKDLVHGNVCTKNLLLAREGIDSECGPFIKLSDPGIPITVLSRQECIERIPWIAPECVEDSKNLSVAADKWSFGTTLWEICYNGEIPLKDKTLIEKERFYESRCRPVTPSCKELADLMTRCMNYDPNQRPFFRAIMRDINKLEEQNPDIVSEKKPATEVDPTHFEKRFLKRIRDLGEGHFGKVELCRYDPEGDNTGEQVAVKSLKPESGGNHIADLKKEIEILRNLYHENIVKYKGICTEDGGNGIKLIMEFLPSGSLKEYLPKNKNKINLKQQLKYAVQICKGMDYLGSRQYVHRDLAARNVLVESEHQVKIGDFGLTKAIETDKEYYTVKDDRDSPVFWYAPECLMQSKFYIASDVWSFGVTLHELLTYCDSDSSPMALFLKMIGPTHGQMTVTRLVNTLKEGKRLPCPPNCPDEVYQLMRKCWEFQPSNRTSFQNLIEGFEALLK

SMILES | IC50
N#Cc1cc(C(=O)Nc2cccc3c(-c4ccnc(NC(=O)C5CC5)c4)c[nH]c23)ccn1 [Example 35, 2-cyano-N-(3-(2-(cyclopropanecarboxamido)pyridin-4-yl)-1H-indol-7-yl)isonicotin amide] | 100 to 1000 nM
CCc1c[nH]c(C(=O)Nc2cccc3c(-c4ccnc(NC(=O)C5CC5)c4)c[nH]c23)c1 [Example 36, N-(3-(2-(cyclopropanecarboxamido)pyridin-4-yl)-1H-indol-7-yl)-4-ethyl-1H-pyrrole-2-carboxamide] | 100 to 1000 nM
O=C(NCC(F)(F)F)Nc1cccc2c(-c3ccnc(NC(=O)C4CC4)c3)cn(C(=O)NCC(F)(F)F)c12 [Example 37, 3-(2-(cyclopropanecarboxamido)pyridin-4-yl)-N-(2,2,2-trifluoroethyl)-7-(3-(2,2,2-trifluoroethyl)ureido)-1H-indole-1-carboxamide] | > 1000 nM
O=C(Nc1cccc2c(-c3ccnc(NC(=O)C4CC4)c3)c[nH]c12)c1cccc(F)c1 [Example 38, N-(3-(2-(cyclopropanecarboxamido)pyridin-4-yl)-1H-indol-7-yl)-3-fluorobenzamide] | 100 to 1000 nM
O=C(NCC(F)(F)F)Nc1cccc2c(-c3ccnc(NC(=O)C4CC4)c3)c[nH]c12 [Example 39, N-(4-(7-(3-(2,2,2-trifluoroethyl)ureido)-1H-indol-3-yl)pyridin-2-yl)cyclopropanecarboxamide] | < 100 nM
CC(C)=C(C#N)C(=O)Nc1cccc2c1ccn2-c1ccnc(NC(=O)C2CC2)c1 [Example 40, N-(4-(4-(2-cyano-3-methylbut-2-enamido)-1H-indol-1-yl)pyridin-2-yl)cyclopropanecarboxamide] | 100 to 1000 nM
N#CCC(=O)Nc1cccc2c1ccn2-c1ccnc(NC(=O)C2CC2)c1 [Example 41, N-(4-(4-(2-cyanoacetamido)-1H-indol-1-yl)pyridin-2-yl)cyclopropanecarboxamide] | 100 to 1000 nM
Cc1ncc(C(=O)Nc2cccc3c2ccn3-c2ccnc(NC(=O)C3CC3)c2)s1 [Example 43, N-(1-(2-(cyclopropanecarboxamido)pyridin-4-yl)-1H-indol-4-yl)-2-methylthiazole-5-carboxamide] | > 1000 nM
O=C(Nc1cccc2c1ccn2-c1ccnc(NC(=O)C2CC2)c1)c1cc(F)cc(F)c1 [Example 44, N-(1-(2-(cyclopropanecarboxamido)pyridin-4-yl)-1H-indol-4-yl)-3,5-difluorobenzamide] | > 1000 nM
Cn1cccc(C(=O)Nc2cccc3c2ccn3-c2ccnc(NC(=O)C3CC3)c2)c1=O [Example 45, N-(1-(2-(cyclopropanecarboxamido)pyridin-4-yl)-1H-indol-4-yl)-1-methyl-2-oxo-1,2-dihydropyridine-3-carboxamide] | > 1000 nM
N#C/C(=C/c1cccs1)C(=O)Nc1cccc2c1ccn2-c1ccnc(NC(=O)C2CC2)c1 [Example 46, N-(4-(4-(2-cyano-3-(thiophen-2-yl)acrylamido)-1H-indol-1-yl)pyridin-2-yl)cyclopropanecarboxamide] | > 1000 nM
N#Cc1ccc(C(=O)Nc2cccc3c2ccn3-c2ccnc(NC(=O)C3CC3)c2)cc1 [Example 47, 4-cyano-N-(1-(2-(cyclopropanecarboxamido)pyridin-4-yl)-1H-indol-4-yl)benzamide] | > 1000 nM
N#C/C(=C\c1ccccc1)C(=O)Nc1cccc2c1ccn2-c1ccnc(NC(=O)C2CC2)c1 [Example 48, N-(4-(4-(2-cyano-3-phenylacrylamido)-1H-indol-1-yl)pyridin-2-yl)cyclopropanecarboxamide] | > 1000 nM
Cn1c(C(=O)Nc2cccc3c2ccn3-c2ccnc(NC(=O)C3CC3)c2)cc2ccccc21 [Example 49, N-(1-(2-(cyclopropanecarboxamido)pyridin-4-yl)-1H-indol-4-yl)-1-methyl-1H-indole-2-carboxamide] | > 1000 nM
N#CC1(C(=O)Nc2cccc3c2ccn3-c2ccnc(NC(=O)C3CC3)c2)CCOCC1 [Example 50, 4-cyano-N-(1-(2-(cyclopropanecarboxamido)pyridin-4-yl)-1H-indol-4-yl)tetrahydro-2H-pyran-4-carboxamide] | > 1000 nM
